Patent US7994307B2, “RNAi modulation of the BCR-ABL fusion gene and uses thereof” (Alnylam Pharmaceuticals, Inc., priority 2004, dated 2011)
Entries after “also recorded” stand apart in the source; their conditions may differ. Structures can show the parent of a compound that is named as a salt.

Assays:
32Dp210/e14a2 cells [1] = assay: Total cell number 48 h after last siRNA treatment, 32Dp210/e14a2 cells; type: cell-based, murine; details: start 2.5 Mio cells
Method: (§1) siRNA-transfection: siRNAs were transfected into the murine cell lines 32Dp210Bcr-Abl-e14a2, -e13a2, 32Dp190Bcr-Abl-e1a2 and the human leukemic cell line MEG-01 using electroporation. Cell density was adjusted to 2.5-5×10^6/ml in RPMI/10% FCS. 800 μl of this cell suspension were mixed with siRNA in a 4 mm electroporation cuvette. Cells were electroporated by means of an EasyJect electroporator (peqlab, Erlangen, Germany) using a single-pulse protocol (250 V, 1800 μF, 8.). This treatment was repeated in intervals of 24 hours as indicated.
In order to determine optimal conditions for RNA interference, we repeated the siRNA treatment one to four times at intervals of 24 hours. […] Despite its short duration, the effect was still sufficient to reduce the viability of cells to approximately 59% relative to control cells (EPC, 100%). […] The residual viability level of the cells treated four times with BAF7 measured in MTT assay was not more than ˜2.5% of the level of the control cells. Identical results were obtained when cell counts 48 hours following last treatment were used for assessment of the biological effect. Both mock-treated and cells treated with a mismatch siRNA still increased their cell number from 2.5 Mio cells to more than 25 Mio cells within 48 hours. […] The lower efficiency of BAF1 became even more obvious when the biological effect of BAF1 was assessed.

p190Bcr-Abl = assay: Western blot of p190Bcr-Abl in SUP-B15 cells; type: cell-based, human; details: 3 treatments at intervals of 24 hours, compared to EPC or BAF19 control
Method: FIG. 3: Cells from the human B cell precursor leukemia cell line SUP-B15 (ACC 389; DSMZ, Braunschweig, breakpoint variant e1a2) were treated as described for […] with an e1a2-specific siRNA (BAF22) or with siRNA directed to another breakpoint variant (BAF19, specific for e13a2) as a control.
as §1
SUP-B15 cells were treated by electroporation as described above with an e1a2-specific siRNA (BAF22) or with siRNA directed to another breakpoint variant (BAF19) as a control.

32Dp190/e1a2 cells = assay: MTT viability assay in 32Dp190/e1a2 cells; type: cell-based, murine
Method: (§2) FIGS. 2A-2B: ˜5 Mio 32Dp190/e1a2 cells have been electroporated twice at intervals of 24 h with the indicated siRNA. BAF22/BAF24: bcr-abl-e1a2-specific siRNAs; BAF9: bcr-abl-e14a2-specific siRNA, served as control; BAF19: bcr-abl-e13a2-specific siRNA, served as control; EPC: electroporation control. FIG. 2A: Western blot analysis of p190^Bcr-abl (e1a2) in 32Dp190/e1a2 cells about 24 h following second siRNA treatment; the level of GAPDH served as loading control. Lane 1: EPC, Lane 2: BAF9, Lane 3: BAF19, Lane 4: BAF22, Lane 5: BAF24. […] Values are means +/− SD of triplicates.
[…] Cell survival was then measured by MTT assay as described (Van der Kuip H, et al., Blood. 2001, 98:1532)
as §1
In 32Dp210Bcr-Abl-e14a2, -e13a2 and 32Dp190Bcr-Abl-e1a2 inhibition of Bcr-Abl can be compensated by addition of exogenous growth factor to the medium. […]

p190Bcr-Abl (e1a2) = assay: Western blot of Bcr-Abl protein in 32Dp190/e1a2 cells; type: cell-based, murine; details: 32Dp190Bcr-Abl (e1a2) cells, treated twice at intervals of 24 h
Method: as §2
(§3) Protein assay: Western blot analysis was performed ˜24 h following the last siRNA -treatment or ˜96 hours following transfection with the pSUPER siRNA-expression vector as described (Goetz A W, et al., Cancer Res. 2001, 61:7635)
siRNA-transfection: siRNAs were transfected into the murine cell lines 32Dp210Bcr-Abl-e14a2, -e13a2, 32Dp190Bcr-Abl-e1a2 and the human leukemic cell line MEG-01 using electroporation. Cell density was adjusted to 2.5-5×10^6/ml in RPMI/10% FCS. 800 μl of this cell suspension were mixed with siRNA in a 4 mm electroporation cuvette. Cells were electroporated by means of an EasyJect electroporator (peqlab, Erlangen, Germany) using a single-pulse protocol (250 V, 1800 μF, 8.). This treatment was repeated in intervals of 24 hours as indicated. […]

p210Bcr-Abl (e14a2) = assay: Western blot of Bcr-Abl protein in 32Dp210/e14a2 cells after siRNA electroporation; type: cell-based, murine; details: 32Dp210Bcr-Abl (e14a2) cells
Method: as §3, §1
(§4) In 32Dp210Bcr-Abl-e14a2, -e13a2 and 32Dp190Bcr-Abl-e1a2 inhibition of Bcr-Abl can be compensated by addition of exogenous growth factor to the medium. Therefor, recombinant murine IL-3, (1 ng/ml) was added to the growth medium during siRNA treatment of these cell lines. Following the last siRNA treatment cells were washed and factor deprived before starting the different examination procedures (Western blot/MTT).
We used three murine hematopoetic 32D cell lines expressing either p210Bcr-Abl (e14a2), p210Bcr-Abl (e13a2) or p190Bcr-Abl (e1a2) to study the effectiveness of siRNAs to silence each of these human Bcr-Abl fusion breakpoint variants. In addition, experiments were performed in human Ph+leukemia cells (K562, MEG-01). All siRNAs used were directed to breakpoints of the Bcr and Abl sequence of the respective Bcr-Abl mRNA. RNAi-efficiency was assayed via analysis of Bcr-Abl protein levels and by monitoring the biological effect using MTT viability assay.

32Dp210/e14a2 cells [2] = assay: MTT viability assay in 32Dp210/e14a2 cells after siRNA electroporation; type: cell-based, murine; details: treated four times, MTT
Method: (§5) Survival Assay: Following the last siRNA treatment cells were seeded in 96 well plates and cultivated for another ˜48 hours. Cell survival was then measured by MTT assay as described (Van der Kuip H, et al., Blood. 2001, 98:1532)
as §1, §4

K562 cells = details: 48 h treatment with imatinib mesylate alone (Wilda et al.); cited from earlier work
32Dp210-H396P cells = assay: Sensitivity to imatinib mesylate of 32Dp210-H396P cells; type: cell-based, murine; details: 32D cells expressing Bcr-Abl-H396P
32Dp210-T315I cells = assay: Sensitivity to imatinib mesylate of 32Dp210-T315I cells; type: cell-based, murine; details: 32D cells expressing Bcr-Abl-T315I
p210Bcr-Abl (e13a2) = assay: Western blot of Bcr-Abl protein in 32Dp210/e13a2 cells; type: cell-based, murine; details: 32Dp210Bcr-Abl (e13a2) cells, repeated electroporation
Method: (§6) FIGS. 1A-1B: ˜2.5 Mio 32Dp210/e13a2 cells have been electroporated 1-3×at intervals of 24 h with the indicated siRNA. BAF3/BAF15/BAF17/BAF19: bcr-abl-e13a2-specific siRNAs; BAF9: bcr-abl-e14a2-specific siRNA, served as control; EPC: electroporation control. FIG. 1A: Western blot analysis of p210^Bcr-abl (e13a2) in 32Dp210/e13a2˜24 h following siRNA treatment; the level of GAPDH served as loading control. Lane 1: EPC, Lane 2: BAF9, Lane 3: BAF3, Lane 4: BAF15, Lane 5: BAF17, Lane 6: BAF19. […] Values are means +/− SD of triplicates.
as §3, §1, §4

32Dp210/e13a2 cells = assay: MTT viability assay in 32Dp210/e13a2 cells; type: cell-based, murine; details: 32Dp210Bcr-Abl (e13a2) cells; for viability relative to controls (EPC): 48 h following 3rd treatment; for viability: repeated (up to three) treatments
Method: as §6, §5, §1, §4

Bcr-Abl-e13a2 = assay: Western blot of Bcr-Abl protein in MEG-01 cells; type: cell-based, human; details: treated three times, compared to mismatch control BAF28
Method: as §3, §1
(§7) All three major Bcr-Abl oncogene variants -e14a2, -e13a2 and -e1a2 can be targeted by RNA interference. To identify effective siRNAs for inhibition of the second major Bcr-Abl fusion gene relevant in CML, Bcr-Abl-e13a2, we treated 32Dp210Bcr-Abl (e13a2) cells with four siRNAs (BAF3, BAF15, BAF17, BAF19) targeting different sequences of the Bcr-Able13a2 mRNA breakpoint. As a control we used a siRNA directed to the Bcr-Abl-e14a2 fusion sequence (BAF9). […] Despite the considerable overlap in their target sequence, BAF17 and BAF3 had no effect Bcr-Abl protein levels. […]

MEG-01 cells = assay: MTT viability assay in MEG-01 cells; type: cell-based, human; details: treated three times
Method: as §5, §1, §7

Chain of p210Bcr-Abl (e13a2) (P11274+P00519 fused): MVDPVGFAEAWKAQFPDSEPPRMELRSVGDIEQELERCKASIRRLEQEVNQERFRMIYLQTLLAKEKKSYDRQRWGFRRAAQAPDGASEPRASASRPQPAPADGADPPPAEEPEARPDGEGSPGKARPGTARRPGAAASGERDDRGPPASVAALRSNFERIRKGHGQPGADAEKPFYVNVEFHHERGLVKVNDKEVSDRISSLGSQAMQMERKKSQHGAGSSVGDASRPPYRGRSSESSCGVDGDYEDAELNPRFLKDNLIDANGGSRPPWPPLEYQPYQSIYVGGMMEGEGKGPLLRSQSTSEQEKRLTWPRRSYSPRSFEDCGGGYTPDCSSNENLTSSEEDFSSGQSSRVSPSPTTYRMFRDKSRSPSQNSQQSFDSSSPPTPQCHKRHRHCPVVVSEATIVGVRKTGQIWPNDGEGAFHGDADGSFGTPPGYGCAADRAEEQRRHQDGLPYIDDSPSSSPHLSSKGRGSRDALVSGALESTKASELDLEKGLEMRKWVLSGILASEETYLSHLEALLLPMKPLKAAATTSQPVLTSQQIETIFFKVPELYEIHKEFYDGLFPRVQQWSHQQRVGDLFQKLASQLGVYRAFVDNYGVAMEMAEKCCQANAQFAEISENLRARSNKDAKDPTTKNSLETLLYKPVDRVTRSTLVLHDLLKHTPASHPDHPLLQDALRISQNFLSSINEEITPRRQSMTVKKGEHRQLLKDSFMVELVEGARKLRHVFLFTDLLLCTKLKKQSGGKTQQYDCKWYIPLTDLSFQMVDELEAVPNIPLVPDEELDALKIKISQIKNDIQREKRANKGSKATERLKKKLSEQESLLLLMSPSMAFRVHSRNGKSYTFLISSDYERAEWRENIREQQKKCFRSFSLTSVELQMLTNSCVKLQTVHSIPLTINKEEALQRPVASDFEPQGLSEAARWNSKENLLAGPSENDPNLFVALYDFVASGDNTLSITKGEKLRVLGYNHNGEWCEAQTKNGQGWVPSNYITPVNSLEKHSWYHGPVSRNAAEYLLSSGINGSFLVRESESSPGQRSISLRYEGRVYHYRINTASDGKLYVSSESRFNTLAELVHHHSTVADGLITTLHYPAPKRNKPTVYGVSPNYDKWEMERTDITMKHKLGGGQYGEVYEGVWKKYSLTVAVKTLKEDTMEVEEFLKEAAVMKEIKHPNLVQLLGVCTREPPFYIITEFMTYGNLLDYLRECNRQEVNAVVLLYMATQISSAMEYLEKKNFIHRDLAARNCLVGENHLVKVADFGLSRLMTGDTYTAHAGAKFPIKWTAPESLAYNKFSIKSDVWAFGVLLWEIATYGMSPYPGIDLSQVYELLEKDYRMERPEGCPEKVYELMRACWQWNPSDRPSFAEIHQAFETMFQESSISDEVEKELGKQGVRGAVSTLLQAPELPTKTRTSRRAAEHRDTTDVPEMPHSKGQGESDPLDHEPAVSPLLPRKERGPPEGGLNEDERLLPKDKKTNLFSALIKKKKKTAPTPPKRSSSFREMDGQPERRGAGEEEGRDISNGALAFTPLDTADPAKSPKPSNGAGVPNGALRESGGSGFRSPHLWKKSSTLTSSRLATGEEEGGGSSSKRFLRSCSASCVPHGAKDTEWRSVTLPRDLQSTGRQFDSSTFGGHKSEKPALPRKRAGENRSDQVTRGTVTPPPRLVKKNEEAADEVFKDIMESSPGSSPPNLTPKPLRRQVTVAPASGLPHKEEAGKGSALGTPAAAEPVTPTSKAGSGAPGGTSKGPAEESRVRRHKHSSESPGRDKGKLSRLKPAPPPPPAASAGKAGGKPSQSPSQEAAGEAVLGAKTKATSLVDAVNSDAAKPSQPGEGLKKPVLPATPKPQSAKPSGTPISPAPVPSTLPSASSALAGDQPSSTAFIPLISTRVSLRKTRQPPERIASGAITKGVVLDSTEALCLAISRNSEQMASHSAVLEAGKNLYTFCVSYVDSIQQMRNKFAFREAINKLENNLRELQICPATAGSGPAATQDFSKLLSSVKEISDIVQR
Chain of p210Bcr-Abl (e14a2) (P11274+P00519 fused): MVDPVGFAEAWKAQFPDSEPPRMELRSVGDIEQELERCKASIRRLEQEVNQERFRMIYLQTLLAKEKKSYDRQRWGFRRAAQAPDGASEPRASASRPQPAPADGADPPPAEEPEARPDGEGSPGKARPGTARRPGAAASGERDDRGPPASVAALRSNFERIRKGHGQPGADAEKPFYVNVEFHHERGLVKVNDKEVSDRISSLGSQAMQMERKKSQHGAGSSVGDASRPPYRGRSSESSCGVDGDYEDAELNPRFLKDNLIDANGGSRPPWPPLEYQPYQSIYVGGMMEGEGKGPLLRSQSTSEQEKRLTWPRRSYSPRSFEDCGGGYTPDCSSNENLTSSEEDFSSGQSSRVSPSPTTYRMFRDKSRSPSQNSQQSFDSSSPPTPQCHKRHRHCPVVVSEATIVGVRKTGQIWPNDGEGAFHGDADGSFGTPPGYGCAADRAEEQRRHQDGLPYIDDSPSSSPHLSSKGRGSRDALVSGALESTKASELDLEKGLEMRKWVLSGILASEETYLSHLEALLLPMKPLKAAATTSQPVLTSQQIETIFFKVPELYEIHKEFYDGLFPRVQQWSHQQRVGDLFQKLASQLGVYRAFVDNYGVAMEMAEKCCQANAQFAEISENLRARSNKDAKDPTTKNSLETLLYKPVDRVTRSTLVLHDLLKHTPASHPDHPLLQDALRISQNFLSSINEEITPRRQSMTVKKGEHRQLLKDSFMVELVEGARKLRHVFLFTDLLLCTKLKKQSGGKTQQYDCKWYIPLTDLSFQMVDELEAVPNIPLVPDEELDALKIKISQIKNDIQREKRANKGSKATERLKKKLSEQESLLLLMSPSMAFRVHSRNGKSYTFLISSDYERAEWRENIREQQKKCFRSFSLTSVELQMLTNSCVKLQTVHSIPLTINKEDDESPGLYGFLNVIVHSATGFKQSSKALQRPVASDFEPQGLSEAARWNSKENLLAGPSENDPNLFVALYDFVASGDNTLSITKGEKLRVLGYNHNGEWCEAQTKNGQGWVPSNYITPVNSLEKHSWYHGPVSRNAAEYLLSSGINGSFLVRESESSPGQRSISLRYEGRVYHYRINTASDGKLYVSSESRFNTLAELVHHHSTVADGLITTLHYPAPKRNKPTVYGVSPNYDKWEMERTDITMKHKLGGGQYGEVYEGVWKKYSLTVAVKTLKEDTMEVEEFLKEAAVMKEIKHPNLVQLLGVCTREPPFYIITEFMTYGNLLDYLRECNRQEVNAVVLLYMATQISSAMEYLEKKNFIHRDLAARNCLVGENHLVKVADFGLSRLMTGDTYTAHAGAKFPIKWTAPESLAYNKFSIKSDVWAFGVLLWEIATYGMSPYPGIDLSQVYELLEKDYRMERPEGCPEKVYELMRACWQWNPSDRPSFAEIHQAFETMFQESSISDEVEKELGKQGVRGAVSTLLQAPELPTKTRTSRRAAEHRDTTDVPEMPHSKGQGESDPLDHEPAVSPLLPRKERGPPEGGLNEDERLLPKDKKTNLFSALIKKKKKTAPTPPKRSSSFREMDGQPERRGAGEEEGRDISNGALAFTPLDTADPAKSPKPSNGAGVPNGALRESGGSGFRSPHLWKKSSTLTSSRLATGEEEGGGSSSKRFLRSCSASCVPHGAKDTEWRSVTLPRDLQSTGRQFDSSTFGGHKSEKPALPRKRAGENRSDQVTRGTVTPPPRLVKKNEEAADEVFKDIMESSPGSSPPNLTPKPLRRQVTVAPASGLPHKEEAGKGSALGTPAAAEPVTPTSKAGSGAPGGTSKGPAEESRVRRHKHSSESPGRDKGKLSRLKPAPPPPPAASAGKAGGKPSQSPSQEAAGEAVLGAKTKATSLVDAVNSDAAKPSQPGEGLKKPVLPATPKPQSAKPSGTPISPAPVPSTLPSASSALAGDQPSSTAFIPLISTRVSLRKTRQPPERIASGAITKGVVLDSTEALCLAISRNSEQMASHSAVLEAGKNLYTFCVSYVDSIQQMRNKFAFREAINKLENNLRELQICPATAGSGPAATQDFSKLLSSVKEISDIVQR

BAF8: siRNA duplex, SEQ ID No. 3/4, Bcr-Abl-e14a2, mismatch control to BAF7 (three mismatches) (chain 1 CAGUGUUCAUAAGCCGUUCAG; chain 2 CUGAACGGCUUAUGAACACUGCU; chemistry not given here)
total cell number 48 h following last treatment (32Dp210/e14a2 cells [1]): more than 25 Mio cells

BAF22: siRNA duplex, SEQ ID No. 19/28, specific for Bcr-Abl-e1a2 (chain 1 GGAGACGCAGAAGCCCUUCAG; chain 2 CUGAAGGGCUUCUGCGUCUCCAU; listed as RNA, chemistry not given here)
p190Bcr-Abl protein levels / Bcr-Abl-e1a2 expression (p190Bcr-Abl): effectively silenced Bcr-Abl-e1a2 expression; also recorded: significantly reduced
viability (32Dp190/e1a2 cells; 32Dp190/e1a2 cells, repeated treatment, ~40 h after second treatment): reduction of viability
viability compared to EPC (100%) (32Dp190/e1a2 cells; 32Dp190Bcr-Abl (e1a2) cells, after 2nd treatment): 15%
Bcr-Abl protein levels / Bcr-Abl-e1a2 gene expression (p190Bcr-Abl (e1a2)): actively silenced Bcr-Abl-e1a2 gene expression; also recorded: significant down-regulation

BAF24: siRNA duplex, SEQ ID No. 21/22, specific for Bcr-Abl-e1a2 (chain 1 GACGCAGAAGCCCUUCAGCGG; chain 2 CCGCUGAAGGGCUUCUGCGUCUC; listed as RNA, chemistry not given here)
Bcr-Abl protein levels / Bcr-Abl-e1a2 gene expression (p190Bcr-Abl (e1a2)): no effect at all

BAF1: siRNA duplex, SEQ ID No. 7/8, single mismatch compared to BAF7 (chain 1 CAGAGUUGAAAAGCCCUUCAG; chain 2 CUGAAGGGCUUUUCAACUCUGCU; listed as RNA, chemistry not given here) [reference compound]
down-regulation of Bcr-Abl protein levels compared to BAF7 (p210Bcr-Abl (e14a2)): less efficient down-regulation
viability relative to EPC (32Dp210/e14a2 cells [2]): 52%

Cc1ccc(NC(=O)c2ccc(CN3CCN(C)CC3)cc2)cc1Nc1nccc(-c2cccnc2)n1 [imatinib mesylate, Imatinib mesylate]
cells undergoing apoptosis (K562 cells): 8%
loss of sensitivity to imatinib mesylate compared to 32Dp210-wt (32Dp210-H396P cells): ~4.7 fold
resistance to imatinib mesylate (32Dp210-T315I cells): complete resistance

BAF19: siRNA duplex, SEQ ID No. 15/27, specific for Bcr-Abl-e13a2 (chain 1 AUCAAUAAGGAAGAAGCCCUU; chain 2 AAGGGCUUCUUCCUUAUUGAUGG; listed as RNA, chemistry not given here)
Bcr-Abl protein levels (p210Bcr-Abl (e13a2)): effective down-regulation
viability relative to controls (EPC) (32Dp210/e13a2 cells): ~14%
viability (32Dp210/e13a2 cells): almost complete loss of viability; also recorded: reduction of viability
Bcr-Abl protein levels / Bcr-Abl-e13a2 expression (Bcr-Abl-e13a2): effectively silenced Bcr-Abl-e13a2 expression; also recorded: significant loss of Bcr-Abl protein levels
viability compared to control cells (EPC, 100%) (MEG-01 cells): ~28%

BAF3: siRNA duplex, SEQ ID No. 9/10, specific for Bcr-Abl-e13a2 (chain 1 UAAGGAAGAAGCCCUUCAGCG; chain 2 CGCUGAAGGGCUUCUUCCUUAUU; listed as RNA, chemistry not given here)
Bcr-Abl protein levels (p210Bcr-Abl (e13a2)): completely ineffective; also recorded: no effect
viability (32Dp210/e13a2 cells): did also not interfere with the viability

BAF17: siRNA duplex, SEQ ID No. 13/26, specific for Bcr-Abl-e13a2 (chain 1 GGAAGAAGCCCUUCAGCGGCC; chain 2 GGCCGCUGAAGGGCUUCUUCCUU; listed as RNA, chemistry not given here)
Bcr-Abl protein levels (p210Bcr-Abl (e13a2)): no effect
viability (32Dp210/e13a2 cells): did also not interfere with the viability

BAF15: siRNA duplex, SEQ ID No. 11/25, specific for Bcr-Abl-e13a2 (chain 1 AAUAAGGAAGAAGCCCUUCAG; chain 2 CUGAAGGGCUUCUUCCUUAUUGA; listed as RNA, chemistry not given here)
Bcr-Abl protein levels (p210Bcr-Abl (e13a2)): effective down-regulation
viability relative to controls (EPC) (32Dp210/e13a2 cells): ~10%
viability (32Dp210/e13a2 cells): almost complete loss of viability; also recorded: reduction of viability
